Laboratory results published in patent publication US20240216357A1 (SICHUAN HUIYU PHARMACEUTICAL CO., LTD., priority 2021, published 2024).
Where a name gives a salt, the structure may show the parent alone. Read-outs that look alike come from different tables or passages of the source.

Columns and labels:
LSD1 = LSD1 (Homo sapiens (Human), UniProt O60341); assay: LSD1 enzyme activity detection (HTRF); type: biochemical; conditions: read-out: Inhibition of enzymatic activity of LSD1 IC50
NCI-H1417 cells = assay: In vitro cell proliferation detection (CellTiter-Glo, 7 days); type: cell-based; conditions: Homo sapiens, 168 h; NCI-H1417 cells, 7 days, CellTiter-Glo; read-out: NCI-H1417 proliferation inhibition IC50
Caco-2 permeability test = conditions: human, Caco-2
[1] = molecular target: voltage-gated potassium ion channel hERG (Homo sapiens (Human), UniProt Q12809); assay: hERG inhibition test (manual patch-clamp)
Chain of voltage-gated potassium ion channel hERG (Q12809 whole entry): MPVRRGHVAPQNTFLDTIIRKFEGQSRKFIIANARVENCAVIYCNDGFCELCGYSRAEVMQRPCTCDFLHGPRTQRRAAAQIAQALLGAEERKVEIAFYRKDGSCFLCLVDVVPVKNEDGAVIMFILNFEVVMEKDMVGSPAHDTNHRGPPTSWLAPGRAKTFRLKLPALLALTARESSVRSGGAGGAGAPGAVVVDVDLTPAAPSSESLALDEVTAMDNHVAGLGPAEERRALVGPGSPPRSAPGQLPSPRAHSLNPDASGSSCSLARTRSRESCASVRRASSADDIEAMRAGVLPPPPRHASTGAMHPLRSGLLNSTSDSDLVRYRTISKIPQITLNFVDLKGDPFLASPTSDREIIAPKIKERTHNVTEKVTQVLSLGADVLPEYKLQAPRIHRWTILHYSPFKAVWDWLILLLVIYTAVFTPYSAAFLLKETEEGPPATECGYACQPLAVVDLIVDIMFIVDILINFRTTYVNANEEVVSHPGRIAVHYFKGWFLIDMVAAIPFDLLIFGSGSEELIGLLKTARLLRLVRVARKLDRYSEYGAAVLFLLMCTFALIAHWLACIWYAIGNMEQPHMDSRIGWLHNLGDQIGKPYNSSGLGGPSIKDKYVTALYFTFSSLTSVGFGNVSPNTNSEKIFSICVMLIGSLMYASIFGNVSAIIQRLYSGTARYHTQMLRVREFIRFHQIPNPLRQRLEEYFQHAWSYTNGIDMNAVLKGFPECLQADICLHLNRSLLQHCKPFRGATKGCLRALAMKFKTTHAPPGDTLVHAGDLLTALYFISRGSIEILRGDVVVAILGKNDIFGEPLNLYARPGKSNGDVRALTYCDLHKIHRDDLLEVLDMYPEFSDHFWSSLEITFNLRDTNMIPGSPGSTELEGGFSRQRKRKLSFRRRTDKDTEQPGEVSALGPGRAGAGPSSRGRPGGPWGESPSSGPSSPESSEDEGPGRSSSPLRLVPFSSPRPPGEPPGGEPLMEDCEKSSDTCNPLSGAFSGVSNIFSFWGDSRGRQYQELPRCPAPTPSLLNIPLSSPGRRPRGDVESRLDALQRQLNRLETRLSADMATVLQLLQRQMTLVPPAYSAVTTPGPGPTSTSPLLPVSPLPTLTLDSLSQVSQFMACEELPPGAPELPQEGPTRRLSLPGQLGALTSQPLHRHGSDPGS

[2] = read-out: hERG IC50, manual patch-clamp
For Cmax in this document: test concentration or dose not given here.

SMILES | IC50 (LSD1; HTRF, H3K4me1 substrate) | IC50 (NCI-H1417 cells) | IC50 [1, 2] | further results
CS(=O)(=O)N1CCN(C(=O)c2cc(CN[C@@H]3C[C@H]3c3ccc(F)cc3)nc(-c3ccc(-n4cccn4)cc3)n2)CC1 [Example 2, (2-(4-(1H-pyrazol-1-yl)phenyl)-6-((((1R,2S)-2-(4-fluorophenyl)cyclopropyl)amino)methyl)pyrimidin-4-yl)(4-(methylsulfonyl)piperazin-1-yl)methanone] | 17.9 ± 3.2 nM | 0.73 nM | 2580 nM | Papp A→B at 120 min (Caco-2 permeability test): 15 ×10⁻⁶ cm/s; Papp B→A at 120 min (Caco-2 permeability test): 15 ×10⁻⁶ cm/s; efflux ratio at 120 min (Caco-2 permeability test): 1
COc1ccc(-c2c(O)cc(N3CCC(N)CC3)nc2-c2ccc(C#N)c(F)c2)cc1F [Example 11, 4-(6-(4-aminopiperidin-1-yl)-3-(3-fluoro-4-methoxyphenyl)-4-hydroxypyridin-2-yl)-2-fluoroben zonitrile formate] | 2.9 ± 0.28 nM | 13 nM | > 30000 nM | Papp A→B at 120 min (Caco-2 permeability test): 3.66 ×10⁻⁶ cm/s; Papp B→A at 120 min (Caco-2 permeability test): 27.2 ×10⁻⁶ cm/s; efflux ratio at 120 min (Caco-2 permeability test): 7.42
COc1cc(F)c(-c2c(O)cc(N3CCC(N)CC3)nc2-c2ccc(C#N)c(F)c2)cc1F [Example 41, 4-(6-(4-aminopiperidin-1-yl)-3-(2,5-difluoro-4-methoxyphenyl)-4-hydroxypyridin-2-yl)-2-fluorobenzonitrile hydrochloride] | 22.1 nM | 7.93 nM | > 30000 nM | 
COc1ccc(-c2c(O)cc(N3CCC(C)(N)CC3)nc2-c2ccc(C#N)c(F)c2)cc1F [Example 50] | 7 ± 2.1 nM | 33.2 nM | 17600 nM | 
COc1ccc(-c2c(OC)cc(N3CCC(N)CC3)nc2-c2ccc(C#N)c(F)c2)cc1O [Example 89, 4-(6-(4-aminopiperidin-1-yl)-3-(3-hydroxy-4-methoxyphenyl)-4-methoxypyridin-2-yl)-2-fluorobenzonitrile] | 0.46 ± 0.11 nM | 1 nM | 13800 nM | Cl (Rat PK test (IV and PO); Male SD rats): 58.3 mL/min/kg; F (Rat PK test (IV and PO); Male SD rats, PO vs IV): 13.1%; AUC(0-inf) (Rat PK test (IV and PO); male, SD, rat, plasma): 208 ng·h/mL; Cmax (Rat PK test (IV and PO); male, SD, rat, plasma): 22.5 ng/mL; half-life (Rat PK test (IV and PO); male, SD, rat, plasma): 6.26 h; Vd (Rat PK test (IV and PO); male, SD, rat, plasma, intravenous): 13 L/kg
COc1cc(N2CCC(N)CC2)nc(-c2ccc(C#N)c(F)c2)c1-c1cc2onc(C)c2cc1F [Example 90, 4-(6-(4-aminopiperidin-1-yl)-3-(5-fluoro-3-methylbenzo[d]isoxazol-6-yl)-4-methoxypyridin-2-yl)-2-fluorobenzonitrile] | 7.48 nM | 5.34 nM | 4620 nM | 
COc1cc(N2CCC(N)CC2)nc(-c2ccc(C#N)c(F)c2)c1-c1cc(O)c(F)c(F)c1 [Example 92, 4-(6-(4-aminopiperidin-1-yl)-3-(3,4-difluoro-5-hydroxyphenyl)-4-methoxypyridin-2-yl)-2-fluorobenzonitrile] | 8.2 ± 0.1 nM | 8.78 nM | 10900 nM | 
COc1cc(N2CCC(N)CC2)nc(-c2ccc(C#N)c(F)c2)c1-c1ccc(C)c(O)c1 [Example 95, 4-(6-(4-aminopiperidin-1-yl)-3-(3-hydroxy-4-methylphenyl)-4-methoxypyridin-2-yl)-2-fluorobenzonitrile hydrochloride] | 0.16 ± 0.11 nM | 0.467 nM | 6920 nM | 
COc1ccc(-c2c(OC(C)C)cc(N3CCC(N)CC3)nc2-c2ccc(C#N)c(F)c2)cc1O [Example 104, 4-(6-(4-aminopiperidin-1-yl)-3-(3-hydroxy-4-methoxyphenyl)-4-isopropoxypyridin-2-yl)-2-fluor obenzonitrile] | 0.7 ± 0.02 nM | 1.76 nM |  | IC50 [1]: 6700 nM
COc1ccc(-c2c(OC3CCCC3)cc(N3CCC(N)CC3)nc2-c2ccc(C#N)c(F)c2)cc1O [Example 105, 4-(6-(4-aminopiperidin-1-yl)-4-(cyclopentyloxy)-3-(3-hydroxy-4-methoxyphenyl)pyridin-2-yl)-2-fluorobenzonitrile] | 2.3 ± 0.04 nM | 5.45 nM | 5600 nM | 
COc1ccc(-c2c(-c3ccc(C#N)c(F)c3)nc(N3CCC(N)CC3)n3ccnc23)cc1F [Example 117, 4-(5-(4-aminopiperidin-1-yl)-8-(3-fluoro-4-methoxyphenyl)imidazolo[1,2-c]pyrimidin-7-yl]-2-fl uorobenzonitrile hydrochloride] |  | 3.76 nM | 7190 nM | IC50 (LSD1): 0.46 ± 0.02 nM
COc1ccc(-c2c(-c3ccc(C#N)c(F)c3)nc(N3CCC(N)CC3)n3ccnc23)cn1 [Example 121, 4-(5-(4-aminopiperidin-1-yl)-8-(6-methoxypyridin-3-yl)imidazolo [1,2-c]pyrimidin-7-yl)-2-fluorobenzonitrile] | 3.15 ± 1.03 nM | 8.38 nM | 6040 nM | 
CC(C)(O)Cc1ccc(-c2c(-c3ccc(C#N)c(F)c3)nc(N3CCC(N)CC3)n3ccnc23)c(F)c1 [Example 132, 4-(5-(4-aminopiperidin-1-yl)-8-(2-fluoro-4-(2-hydroxy-2-methylpropyl)phenyl)imidazolo[1,2-c]pyrimidin-7-yl)-2-fluorobenzonitrile hydrochloride] | 5.62 nM | 11.9 nM | > 30000 nM | 
N#Cc1ccc(-c2nc(N3CCC(N)CC3)n3ccnc3c2-c2ccc(OC(F)(F)F)c(O)c2)cc1F [Example 133, 4-(5-(4-aminopiperidin-1-yl)-8-(3-hydroxy-4-(trifluoromethoxy)phenyl)imidazolo [1,2-c]pyrimidin-7-yl)-2-fluorobenzonitrile hydrochloride] | 0.54 ± 0.32 nM | 1.04 nM | 7170 nM | 
CC(C)(O)Cc1ccc(-c2c(-c3ccc(C#N)c(F)c3)nc(N3CCC(N)CC3)n3ccnc23)cc1F [Example 134, 4-(5-(4-aminopiperidin-1-yl)-8-(3-fluoro-4-(2-hydroxy-2-methylpropyl)phenyl)imidazolo [1,2-c]pyrimidin-7-yl)-2-fluorobenzonitrile] | 6.1 ± 1.9 nM | 7.25 nM | 18400 nM | 
COc1ccc(-c2c(-c3ccc(C#N)c(F)c3)nc(N3CCC(N)CC3)n3ccnc23)cc1C#N [Example 135, 4-(5-(4-aminopiperidin-1-yl)-8-(3-cyano-4-methoxyphenyl)imidazolo[1,2-c]pyrimidin-7-yl)-2-fluorobenzonitrile] | 9.6 ± 2.7 nM | 8.19 nM | 23400 nM | 
Cc1ccc(-c2c(-c3ccc(C#N)c(F)c3)nc(N3CCC(N)CC3)n3ccnc23)cc1O [Example 136, 4-(5-(4-aminopiperidin-1-yl)-8-(3-hydroxy-4-methylphenyl)imidazolo[1,2-c]pyrimidin-7-yl)-2-fluorobenzonitrile hydrochloride] | 0.06 ± 0.02 nM | 0.176 nM | > 30000 nM | 
N#Cc1ccc(-c2nc(N3CCC(N)CC3)n3ccnc3c2-c2ccc(F)c(O)c2)cc1F [Example 137, 4-(5-(4-aminopiperidin-1-yl)-8-(4-fluoro-3-hydroxyphenyl)imidazolo[1,2-c]pyrimidin-7-yl]-2-fluorobenzonitrile] | 0.07 ± 0.05 nM | 0.553 nM | > 10000 nM | 
CS(=O)(=O)N1CCN(C(=O)c2cc(CN[C@@H]3C[C@H]3c3ccc(F)cc3)nc(-c3ccc(-n4ccnn4)cc3)n2)CC1 [Example 228] | 22.9 nM | 4.68 nM | 7210 nM | 
O=C(c1cc(CN[C@@H]2C[C@H]2c2ccc(F)cc2)nc(-c2ccc(-n3cccn3)cc2)n1)N1CCC(F)(F)CC1 [Example 230] | 47.9 nM | 3.92 nM | 4990 nM | 
O=C(NC1CCOCC1)c1cc(CN[C@@H]2C[C@H]2c2ccc(F)cc2)nc(-c2ccc(-n3cccn3)cc2)n1 [Example 233] | 7.2 ± 2.3 nM | 9.36 nM | 4470 nM | 
